Values joined by “and” are separate entries in the source; they are usually repeats but may differ in a detail not shown here. Identical values can stand only once.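 Where inhibition never reached the appropriate level, the endpoint shown equals the highest concentration tested. Otherwise, values were interpolated linearly from a five-concentration, 48-hour dose response in 96-well plates. GI50: concentration for 50% inhibition of growth. Definition used: TGI = concentration required for complete inhibition of growth.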
How the values were obtained:
Assay in all cases: NCI tumour cell line growth inhibition, 48 h
[1] = test system: HCT-116 colon
[2] = test system: M14 melanoma
[3] = test system: CAKI-1 renal
[4] = test system: HCT-15 colon
[5] = test system: SR leukemia
[6] = test system: MOLT-4 leukemia
[7] = test system: NCI-H460 lung
[8] = test system: HCC-2998 colon
[9] = test system: KM12 colon
[10] = test system: SK-MEL-5 melanoma

SMILES | TGI [1] | TGI [2] | TGI [3] | TGI [4] | TGI [5] [µM] | TGI [6] | TGI [7] | TGI [8] | TGI [9] | TGI [10] | GI50 [1] | GI50 [2] | GI50 [3] | GI50 [4] | GI50 [5] | GI50 [6] | GI50 [7] | GI50 [8] | GI50 [9] | GI50 [10]
NC(=O)C(=O)N/N=C(\CC1(O)C(=O)Nc2ccccc21)c1ccc2ccccc2c1 (stereo not drawn) | 21.2 µM | > 100 µM | > 100 µM | > 100 µM | 44.5 | 53.5 µM | > 100 µM | 87.9 µM | 58.7 µM | > 100 µM | – | – | – | – | – | – | – | – | – | –
O=C1/C(=C/c2ccccc2)CNC/C1=C\c1ccccc1 | 0.415 µM | 3.56 µM | 17.6 µM | 2.76 µM | 0.536 | 3.36 µM | 3.08 µM | 3.33 µM | 2.66 µM | 4.07 µM | – | – | – | – | – | – | – | – | – | –
CC[C@@H]1CN(C)[C@H]2Cc3c([nH]c4ccccc34)C(=O)C[C@H]1C2C(=O)OC (stereo partly drawn) | > 100 µM | > 100 µM | > 100 µM | > 100 µM | > 100 | > 100 µM | > 100 µM | > 100 µM | > 100 µM | > 100 µM | – | – | – | – | – | – | – | – | – | –
C=C1C(=O)O[C@H]2[C@H]1CC/C(COC(=O)c1ccc3ccccc3c1)=C\CC[C@@]1(C)O[C@@H]21 | 1.6 µM | 2.68 µM | 2.46 µM | 1.66 µM | > 26.8 | 3.47 µM | 3.75 µM | 3.36 µM | 3.16 µM | 3 µM | 0.379 µM | 1.13 µM | 1.22 µM | 0.394 µM | 0.336 µM | 0.503 µM | 1.69 µM | 1.75 µM | 1.48 µM | 1.63 µM
COC12C=C(C)C(CC1)CC2C(=O)O (stereo not drawn) | > 100 µM | > 100 µM | > 100 µM | > 100 µM | > 100 | > 100 µM | > 100 µM | > 100 µM | > 100 µM | > 100 µM | – | – | – | – | – | – | – | – | – | –
CC[C@@H]1C(=O)N(C)c2cnc(Nc3ccc(C(=O)NC4CCN(C)CC4)cc3OC)nc2N1C1CCCC1 | > 4.05 µM and 1.45 µM | > 4.22 µM and 2.37 µM | > 10 µM and 13.6 µM | > 4.57 µM and 6.38 µM | – | 1.39 µM and 0.579 µM | > 10 µM and 6.64 µM | 1.42 µM and 0.506 µM | > 10 µM and 5.65 µM | 0.205 µM and 0.274 µM | 0.00366 µM and < 0.01 µM | 0.00384 µM and < 0.01 µM | 0.297 µM and 0.476 µM | 0.186 µM and 0.219 µM | 0.00182 µM and < 0.01 µM | 0.00387 µM and < 0.01 µM | 0.00386 µM and < 0.01 µM | 0.00426 µM and < 0.01 µM | 0.00346 µM and < 0.01 µM | 0.00861 µM and 0.0123 µM
N#CSc1c[nH]c2cccc(/C=C/C(=O)/C=C(/C=C/c3cccc4[nH]cc(SC#N)c34)OB(F)F)c12 | 0.742 µM | 3.08 µM | 8.62 µM | 1.49 µM | > 100 | 3.14 µM | 6.13 µM | 6.89 µM | 3.98 µM | 2.92 µM | 0.244 µM | 0.558 µM | 0.887 µM | 0.315 µM | 0.345 µM | 0.302 µM | 1.12 µM | 2.59 µM | 1.04 µM | 1.23 µM
O=C1Nc2c(C(F)(F)F)cccc2[C@]1(c1ccc(O)cc1)c1ccc(OC(F)(F)F)cc1 | 23.9 µM | 29.2 µM | 22.7 µM | 23.3 µM | 39.8 | 23.6 µM | 28.8 µM | 29.8 µM | 24.2 µM | 24.6 µM | 7.73 µM | 14.2 µM | 10.1 µM | 9.43 µM | 6.6 µM | 5.34 µM | 8.43 µM | 14 µM | 11.3 µM | 11.9 µM
NC(=O)c1ccc(I)c(N)c1 | > 100 µM | > 100 µM | > 100 µM | > 100 µM | > 100 | > 100 µM | > 100 µM | > 100 µM | > 100 µM | > 100 µM | > 100 µM | > 100 µM | > 100 µM | > 100 µM | > 100 µM | > 100 µM | > 100 µM | > 100 µM | > 100 µM | > 100 µM
C[C@@H]1OC(O)[C@@H](F)[C@H](O)[C@@H]1O (stereo partly drawn) | > 100 µM | > 100 µM | > 100 µM | > 100 µM | > 100 | > 100 µM | > 100 µM | > 100 µM | > 100 µM | > 100 µM | > 100 µM | > 100 µM | > 100 µM | > 100 µM | > 100 µM | > 100 µM | > 100 µM | > 100 µM | > 100 µM | > 100 µM
C=CC(=O)N1CC2(CCN(c3nc(OC4CCN(CCCOC)CC4)nc4c(OCC(F)(F)F)c(-c5c(C)ccc6[nH]ncc56)c(C5CC5)cc34)CC2)C1 | 4.17 µM | 3.97 µM | 15.2 µM | 3.21 µM | 4.77 | 6.06 µM | 4.4 µM | 4.64 µM | 4.04 µM | 4.93 µM | 1.95 µM | 2 µM | 4.15 µM | 1.66 µM | 1.75 µM | 1.67 µM | 2.09 µM | 2 µM | 1.96 µM | 2.14 µM
COC(=O)C1Cc2c(n(Cc3ccccc3)c3ccccc23)C(CCC(=O)O)N1C(C)C (stereo not drawn) | > 100 µM | > 100 µM | > 100 µM | > 100 µM | > 100 | > 100 µM | > 100 µM | > 100 µM | > 100 µM | > 100 µM | – | – | – | – | – | – | – | – | – | –
CC1=CC(=Nc2ccc(N(CCCl)CCCl)cc2)C=C(C)C1=O | 2.38 µM | 3.98 µM | 1.08 µM | 11 µM | > 33.9 | > 25.6 µM | 1.96 µM | 9.83 µM | 11.3 µM | 5.17 µM | 0.935 µM | 0.603 µM | 0.116 µM | 1.63 µM | 0.288 µM | 0.377 µM | 0.181 µM | 2.29 µM | 2.64 µM | 1.72 µM
COc1cc(C2=C(c3ccccc3)COC2=O)cc(OC)c1OC | > 38.1 µM | > 27.7 µM | > 27.7 µM | > 100 µM | 0.295 | > 100 µM | 56.4 µM | 5.97 µM | > 31.7 µM | 19.3 µM | 2.29 µM | 1.79 µM | 0.585 µM | 2.96 µM | – | 4.18 µM | 0.966 µM | 1.27 µM | 0.593 µM | 1.4 µM
CN1CCN(C)C12C=c1ccccc1=CC21CC1 | 56.9 µM | 34.8 µM | > 100 µM | 73.6 µM | 63.2 | 54.8 µM | > 75.1 µM | 30.4 µM | 68.4 µM | 51.1 µM | – | – | – | – | – | – | – | – | – | –
CN1CCN(C(=O)OCc2nc3c(N4CCOCC4)nc(Cl)nc3n2C)CC1 | 1.62 µM | 2.65 µM | 2.31 µM | 2.79 µM | 1.33 | 4.69 µM | 3.51 µM | 3.15 µM | 6.08 µM | 2.89 µM | 0.343 µM | 1.19 µM | 1.03 µM | 0.905 µM | 0.241 µM | 1.19 µM | 1.64 µM | 1.62 µM | 2.05 µM | 1.55 µM
